Source: the NIST ThermoML archive (doi:10.1016/j.tca.2005.08.036)

Assay: mn = molality of the nth substance listed, in mol/kg
Conditions: Liquid, Capillary tube (Ostwald / Ubbelohde) method

[I-].[Li+] [lithium iodide] + O
viscosity [mPa·s]
Conditions | 100 kPa | 10000 kPa | 40000 kPa
293.15 K, m1 = 0.08 | 1.009 | 1.005 | 0.9978
293.15 K, m1 = 0.16 | 1.015 | 1.012 | 1.004
293.15 K, m1 = 0.2832 | 1.025 | 1.02 | 1.014
293.15 K, m1 = 0.6621 | 1.05 | 1.047 | 1.039
293.15 K, m1 = 1.605 | 1.122 | 1.118 | 1.112
293.15 K, m1 = 2.16 | 1.158 | 1.154 | 1.147
293.15 K, m1 = 3.089 | 1.227 | 1.224 | 1.215
298.15 K, m1 = 0.08 | 0.8961 | 0.8946 | 0.892
298.15 K, m1 = 0.16 | 0.9025 | 0.9012 | 0.8979
298.15 K, m1 = 0.2832 | 0.9114 | 0.9098 | 0.907
298.15 K, m1 = 0.6621 | 0.9363 | 0.9351 | 0.9225
298.15 K, m1 = 1.605 | 1.002 | 1.001 | 0.9979
298.15 K, m1 = 2.16 | 1.04 | 1.038 | 1.035
298.15 K, m1 = 3.089 | 1.108 | 1.101 | 1.097
304.75 K, m1 = 0.6621 | 0.8141 | 0.8149 | 0.8164
304.77 K, m1 = 0.08 | 0.7764 | 0.777 | 0.7779
307.45 K, m1 = 3.089 | 0.9235 | 0.925 | 0.9291
308.74 K, m1 = 0.16 | 0.7215 | 0.7221 | 0.7256
310.64 K, m1 = 0.2832 | 0.7028 | 0.7047 | 0.7074
311.74 K, m1 = 1.605 | 0.7684 | 0.77 | 0.7748
312.45 K, m1 = 2.16 | 0.7939 | 0.7957 | 0.8016
322.51 K, m1 = 0.2832 | 0.5682 | 0.5704 | 0.5768
323.45 K, m1 = 1.605 | 0.6301 | 0.6327 | 0.6406
323.74 K, m1 = 0.16 | 0.5504 | 0.5527 | 0.5599
324.02 K, m1 = 2.16 | 0.6554 | 0.6584 | 0.6666
324.23 K, m1 = 0.6621 | 0.5733 | 0.5758 | 0.5829
324.62 K, m1 = 0.08 | 0.5385 | 0.5407 | 0.5475
325.64 K, m1 = 3.089 | 0.6865 | 0.6896 | 0.6986
341.69 K, m1 = 0.08 | 0.4164 | 0.4192 | 0.4252
343.64 K, m1 = 0.6621 | 0.4337 | 0.4368 | 0.4458
344.06 K, m1 = 0.16 | 0.4065 | 0.4093 | 0.4177
344.66 K, m1 = 1.605 | 0.4673 | 0.4708 | 0.4804
345.43 K, m1 = 2.16 | 0.4884 | 0.4912 | –
